Laboratory results: patent publication US20130302278A1, “USE OF TLR AGONISTS AND/OR TYPE 1 INTERFERONS TO ALLEVIATE TOXICITY OF TNF-R AGONIST THERAPEUTIC REGIMENS” (Immurx Inc., priority 2007, published 2013)

Experiments:
[1] = tested on: B16.F10 melanoma cells; assay: Therapeutic vaccination against metastatic B16.F10 melanoma (lung metastases, survival)
Description: Therein, C57BL/6 mice were challenged with 10^5 metastatic B16.F10 melanoma cells intravenously. Four days later, mice were vaccinated with 100 μg of the tumor-associated antigen V, 100 μg CD40 FGK45, and 100 μg S-27609 in combinations as indicated. After 24 days, mice were killed, lungs were removed, and metastatic surface tumor nodules were enumerated with the aid of a dissecting microscope.
Mice were injected with 10^5 B16.F10 melanoma tumor cells intravenously to establish lung metastases. Four days later, naive or tumor-bearing mice were intravenously vaccinated with 100 μg V peptide, 100 μg anti-CD40, and 100 μg of the TLR7 agonist S-27609 in various combinations as indicated. Lungs were harvested approximately 20 days later, and metastases were enumerated with the aid of a dissection microscope. Alternatively, mice were monitored for survival over the next 90 days.
C57BL/6 mice were challenged with 10^5 metastatic B16.F10 melanoma cells intravenously. Four days later, mice were vaccinated with 100 μg of the tumor-associated antigen V, 100 μg CD40 FGK45, and 100 μg S-27609 in combinations as indicated. After 24 days, mice were killed, lungs were removed, and metastatic surface tumor nodules were enumerated with the aid of a dissecting microscope.

[2] = tested on: TRP2-specific CD8^+ T cells; assay: Degranulation (CD107a) and expansion of CD8+ T cells in peripheral blood 7 days after immunization; format: in vivo, C57BL/6 mice; conditions: 7 days after i.v. immunization, 100 μg each, groups given with V peptide
From the text: Seven days later, mice were bled and cells were restimulated in vitro with TRP2(180-188) to assess the ability to produce IFN and translocate CD107a as described in “Methods.” Lymphocytes were identified by forward and side scatter and subsequently gated on all CD8^+ events. (A) Representative dot plots from vaccinated mice. The numbers in the upper right corners indicate the frequency of CD8^+ T cells that are positive for IFN and CD44 (top row) or IFN and CD107a (bottom row). (B) Percentage of peripheral blood lymphocytes expressing the CD8 antigen. P.001 by one-tailed ANOVA (C) Quantification of the percentages of CD8^+ cells that degranulated in response to peptide restimulation. In all cases, data presented are representative of at least 3 independent experiments. […] P.001 by one-tailed ANOVA.
Cells from lung, spleen, or peripheral blood (peripheral blood lymphocytes [PBLs]) were incubated with 1 μg/mL Ova(257-264) or TRP2(180-188) peptide plus 10 U/mL IL-2 and 3 μg/mL brefeldin A in complete medium at 37° C. for 5 to 18 hours. […] The percentage of IFN^+ cells was calculated by subtracting the background observed with the irrelevant peptide control.

[3] = tested on: memory CD8^+ T cells; assay: Memory CD8+ T-cell function (intracellular cytokine staining) 60+ days after vaccination; format: in vivo, mice; conditions: spleen and lung
Description: In the experiments depicted in FIG. 2, mice were immunized with 100 μg each of V peptide, CD40, and S-27609 in combinations as indicated. Memory CD8S functionality was assessed 65 days later. (A) Representative dot plots of IFN secretion by memory CD8^+ T cells isolated from spleens and lungs of vaccinated mice. Dot plots are gated on live CD8^+ cells, and numbers indicate the percentage of cells positive for both IFN and CD44. (B) Memory CD8^+ T-cell cytolytic activity was assessed by performing an in vivo cytotoxicity assay. Numbers reflect the percentage of antigen-specific lysis. (C,D) Quantification of relative and absolute numbers of memory CD8 cells expressing IFN in the spleen (C) and lung (D). Absolute numbers of positive cells were determined by multiplying the relative percentage of each cell population by the total number of cells isolated from each tissue. (E) Quantification of the in vivo cytotoxicity assay presented in panel B. P.001 by one-tailed ANOVA. […] Cells from panel F were analyzed for the ability to produce TNF and IL-2. […]
Mice were immunized with 100 μg each of V peptide, CD40, and S-27609 in combinations as indicated. Memory CD8 functionality was assessed 65 days later. […] (B) Memory CD8^+ T-cell cytolytic activity was assessed by performing an in vivo cytotoxicity assay. […] (E) Quantification of the in vivo cytotoxicity assay presented in panel B. P.001 by one-tailed ANOVA. […]

[4] = Serum transaminase (ALT, AST) analysis of hepatocellular injury; format: in vivo, mice; conditions: 100 μg each i.v., 24 to 72 hours
Description: (§1) FIG. 5 This figure contains experiments that reveal that the hepatic toxicity associated with CD40 monotherapy is reversed with TLR7 agonism. FIG. 5(A, B) contain kinetic analysis of serum transaminases. Mice were treated with PBS, 100 μg CD40, 100 μg TLR7*, or both intravenously. Serum was isolated at various time points afterward, and serum levels of alanine transaminase (A) or aspartate transaminase (B) were measured as described. Data are representative of 3 independent experiments, with n=3 to 8 mice per group, per time point. (C-F) Histologic analysis of livers treated with PBS (C), […] CD40 (D), 100 μg TLR7* (E), or 100 μg CD40 and 100 μg TLR7*(F) for 48 hours. (G) Semiquantitative assessment of histopathologic changes in livers from mice treated as above for 48 hours. […]
(§2) Hepatocellular injury was biochemically assessed by measuring serum liver enzyme activity. […] Serum was harvested 24 to 72 hours later and levels of alanine aminotransferase (ALT) and aspartate aminotransferase (AST) were determined by standard clinical assays at the National Jewish Medical Center Core Lab (Denver, Colo.). For histologic analysis, livers from mice treated as above were fixed in buffered formalin, embedded in paraffin, sectioned, and stained with hematoxylin and eosin (H&E) prior to being coded and scored on a 0 to 4 scale in a blinded fashion. […]

[5] = Macroscopic and histologic analysis of livers (H&E, 0 to 4 score); format: in vivo, mice
Description: as §1, §2

Compound	control of tumor progression (number of lung tumor nodules) ([1]; 10^5 B16.F10 i.v., treatment 4 days later, lungs at 24 days)	mean survival time ([1]; all mice succumbed to lung failure) [days]	CD8^+ cells expressing CD107a (degranulation after peptide restimulation) [2]	persisting antigen-specific CD8^+ effector population [3]	plasma levels of ALT and AST [4]	histologic analysis of liver ([5]; 48 hours after 100 μg each i.v.)	semiquantitative score of histologic liver damage ([5]; 48 hours, P=0.026, TLR7* added to CD40)
SIYDFFVWL [tumor antigen]	ineffective in controlling tumor progression	29					
Cc1nc2c(N)nc3ccccc3c2n1CC(C)(C)O [TLR7*]			approximately 2%	failed to induce a significant pool	no effect on enzyme levels	minor inflammation without any observable coagulative necrosis	significantly reduces liver toxicity associated with CD40 monotherapy
